Assays:
[1] = system: left coronary blood flow; test: Coronary blood flow after injection into left coronary artery of anesthetized dogs; format: in vivo; details: intracoronary injection, anesthetized dog; for Increase in CBF ED50: dose to increase CBF by half of the effect of nifedipine (3 μg); for Decrease in CBF ED-50: dose to decrease CBF by 50% from basal value
Description: (§1) Dogs of either sex were anesthetized with sodium pentobarbital (30 mg/kg i.v.). Heparin (500 U/kg i.v.) was administered before making preparation. Under artificial respiration (18 strokes/min, 20 ml/kg tidal volume), left ventricular dp/dt max, and left coronary blood flow were measured (1). Test compounds were injected into the left coronary artery in a volume of 10 or 30 μl. The effects of compounds on coronary blood flow were observed and presented generally as ED50, a dose required to increase coronary blood flow by a half of the effects of nifedipine (3 μg). Similarly, the effects on dp/dt max were observed and shown as ED30, a dose required to increase dp/dt max by 30% of the efffects of isoproterenol (0.1 μg).

[2] = system: left ventricular dp/dt max; test: Left ventricular dp/dt max after injection into left coronary artery of anesthetized dogs; format: in vivo; details: intracoronary injection, anesthetized dog; dose to increase dp/dt max by 30% of effect of isoproterenol (0.1 μg)
Description: as §1

[3] = system: coronary arterial blood flow; test: Coronary vasodilating effects in the anesthetized dog; format: in vivo; details: Canis lupus familiaris, iv, read-out: Increase in coronary blood flow; for change in vivo at 0.03 mg/kg: 30 μg/kg; for change in vivo at 0.3 mg/kg: 300 μg/kg; for change in vivo at 0.01 mg/kg: 10 μg/kg
Description: (§2) Adult mongrel dogs were anesthetized with sodium pentobarbital (30 mg/kg i.v.). Effects of test compounds on arterial blood pressure, coronary arterial blood flow, vertebral blood flow, renal blood flow, left ventricular dp/dt max (dp/dt max) and urine volume were observed. The compounds were administered intravenously (i.v.) or intraduodenally (i.d.).

[4] = system: left ventricular dp/dt max; test: Cardiotonic effects in the anesthetized dog; format: in vivo; details: Canis lupus familiaris, iv, read-out: Increase in dp/dt max; for change in vivo at 0.3 mg/kg: 300 μg/kg
Description: as §2

[5] = system: arterial blood pressure; test: Hypotensive effects in the anesthetized dog; format: in vivo; details: Canis lupus familiaris, iv, read-out: Hypotensive effect; for inhibition in vivo at 0.01 mg/kg: 10 μg/kg; for inhibition in vivo at 0.03 mg/kg: 30 μg/kg
Description: as §2

[6] = system: Rabbit aorta; test: Ca2+-agonistic and antagonistic activity in rabbit aorta; details: compound 10^-6 M
Description: Rabbit aorta were isolated and cut into ring segments of about 2 mm. These preparations were suspended in 40 ml chambers filled with Krebs-Henseleit solution bubbled with a gas mixture of 95% O2 +5% CO2 (pH 7.4) and kept at 37° C. The contractile response to [K^+ ]o (9-48 mM) was measured in the absence or presence of test compounds (1).
That is, at lower [K^+ ]o these compounds augmented contractile force, however, at higher [K^+ ]o they produced only relaxation of aorta. [K^+ ]o, at which conversion of the effects of compounds (10^-6 M) occurred, was as follows.

CC1=C(C(=O)OC(C)C)C(c2ccccc2Cl)n2nccc2N1 (stereo not drawn) [(26), 7-(2-Chlorophenyl)-6-isopropoxycarbonyl-5-methyl-4,7-dihydropyrazolo[1,5-a]pyrimidine]
Increase in CBF ED50 [1]: 13 µg | Increase in dp/dt max ED30 [2]: 133 µg | change in vivo at 0.03 mg/kg [3]: 33%

CCOC(=O)C1=C(CO)Nc2ccnn2C1c1ccccc1C(F)(F)F (stereo not drawn) [(5), 6-Ethoxycarbonyl-5-hydroxymethyl-7-(2-trifluoromethylphenyl)-4,7-dihydropyrazolo[1,5-a]pyrimidine]
change in vivo at 0.3 mg/kg [4]: 20% | change in vivo at 0.3 mg/kg [3]: 43%

CCOC(=O)C1=C(C)Nc2ccnn2C1c1ccccc1OC(F)F (stereo not drawn) [(18), 7-(2-Difluoromethoxyphenyl)-6-ethoxycarbonyl-5-methyl-4,7-dihydropyrazolo[1,5-a]pyrimidine]
change in vivo at 0.3 mg/kg [4]: 20% | change in vivo at 0.3 mg/kg [3]: 89%

CCOC(=O)C1=C(C)Nc2ccnn2C1c1ccccc1SCc1ccccc1 (stereo not drawn) [(17), 7-(2-Benzylthiophenyl)-6-ethoxycarbonyl-5-methyl-4,7-dihydropyrazolo[1,5-a]pyrimidine]
Decrease in CBF ED-50 [1]: 1.1 µg | Increase in dp/dt max ED30 [2]: 6.7 µg

CC1=C(C(=O)OCC2CC2)C(c2ccccc2C(F)(F)F)n2ncc(C#N)c2N1 (stereo not drawn) [(7), 3-Cyano-6-cyclopropylmethyloxycarbonyl-5-methyl-7-(2-trifluoromethylphenyl)-4,7-dihydropyrazolo[1,5-a]pyrimidine]
inhibition in vivo at 0.01 mg/kg [5]: 20% | Increase in CBF ED50 [1]: 2.0 µg | Increase in dp/dt max ED30 [2]: > 30 µg | change in vivo at 0.01 mg/kg [3]: 52%

CC1=C(C(=O)OCC2CC2)C(c2ccccc2C(F)(F)F)n2nccc2N1 (stereo not drawn) [(6), 6-Cyclopropylmethyloxycarbonyl-5-methyl-7-(2-trifluoromethylphenyl)-4,7-dihydropyrazolo[1,5-a]pyrimidine]
change in vivo at 0.01 mg/kg [3]: 45%

CC1=C(C(=O)OC(C)C)C(c2ccccc2F)n2ncc(C#N)c2N1 (stereo not drawn) [(29), 3-Cyano-7-(2-fluorophenyl)-6-isopropoxycarbonyl-5-methyl-4,7-dihydropyrazolo[1,5-a]pyrimidine]
Increase in CBF ED50 [1]: 1.0 µg | Increase in dp/dt max ED30 [2]: > 30 µg

CCCOC(=O)C1=C(C)Nc2ccnn2C1c1ccccc1C(F)(F)F (stereo not drawn) [(11), 5-Methyl-6-propoxycarbonyl-7-(2-trifluoromethylphenyl)-4,7-dihydropyrazolo[1,5-a]pyrimidine]
change in vivo at 0.01 mg/kg [3]: 36% | [K+]o at which conversion of Ca2+-agonistic to Ca2+-antagonistic action occurred [6]: 22 mM

CCOC(=O)C1=C(CF)Nc2ccnn2C1c1ccccc1C(F)(F)F (stereo not drawn) [(24), 6-Ethoxycarbonyl-5-fluoromethyl-7-(2-trifluoromethylphenyl)-4,7-dihydropyrazolo[1,5-a]pyrimidine]
Decrease in CBF ED-50 [1]: > 300 µg | Increase in dp/dt max ED30 [2]: 86 µg

COCC(OC(=O)C1=C(C)Nc2ccnn2C1c1ccccc1C(F)(F)F)c1ccccc1 (stereo not drawn) [(8), 1-Phenyl-2-methoxyethyl 5-methyl-7-(2-trifluoromethylphenyl)-4,7-dihydropyrazolo[1,5-a]pyrimidine-6-carboxylate (β-form of diastereomer)]
change in vivo at 0.01 mg/kg [3]: 33%

CCOC(=O)C1=C(C)Nc2nnnn2C1c1ccccc1C(F)(F)F (stereo not drawn) [(21), 6-Ethoxycarbonyl-5-methyl-7-(2-trifluoromethylphenyl)-4,7-dihydrotetrazolo[1,5-a]pyrimidine]
change in vivo at 0.3 mg/kg [3]: 63%

CC1=C(C(=O)OC(C)C)C(c2cccc(F)c2F)n2nccc2N1 (stereo not drawn) [(31), 7-(2,3-Difluorophenyl)-6-isopropoxycarbonyl-5-methyl-4,7-dihydropyrazolo[1,5-a]pyrimidine]
Increase in CBF ED50 [1]: 1.4 µg | Increase in dp/dt max ED30 [2]: > 30 µg

CCOC(=O)C1=C(C)Nc2c(Cl)cnn2C1c1ccccc1C(F)(F)F (stereo not drawn) [(16), 3-Chloro-6-ethoxycarbonyl-5-methyl-7-(2-trifluoromethylphenyl)-4,7-dihydropyrazolo[1,5-a]pyrimidine]
inhibition in vivo at 0.3 mg/kg ([5]; 300 μg/kg): 29% | change in vivo at 0.3 mg/kg [3]: 113%

CC1=C(C(=O)OC(C)C)C(c2cccc(F)c2F)n2ncc(C#N)c2N1 (stereo not drawn) [(35), 3-Cyano-7-(2,3-difluorophenyl)-6-isopropoxycarbonyl-5-methyl-4,7-dihydropyrazolo[1,5-a]pyrimidine]
Increase in CBF ED50 [1]: 0.28 µg | Increase in dp/dt max ED30 [2]: > 30 µg

CC1=C(C(=O)OC(C)C)C(c2cccc(F)c2Cl)n2nccc2N1 (stereo not drawn) [(33), 7-(2-Chloro-3-fluorophenyl)-6-isopropoxycarbonyl-5-methyl-4,7-dihydropyrazolo[1,5-a]pyrimidine]
Increase in CBF ED50 [1]: 1.4 µg | Increase in dp/dt max ED30 [2]: > 30 µg

COc1ccc(CCOC(=O)C2=C(C)Nc3ccnn3C2c2ccccc2C(F)(F)F)cc1OC (stereo not drawn) [(19), 6-[2-(3,4-Dimethoxyphenyl)ethyl]oxycarbonyl-5-methyl-7-(2-trifluoromethylphenyl)-4,7-dihydropyrazolo[1,5-a]pyrimidine]
Decrease in CBF ED-50 [1]: 1.2 µg | Increase in dp/dt max ED30 [2]: 14 µg

CCC(CC)OC(=O)C1=C(C)Nc2ccnn2C1c1ccccc1C(F)(F)F (stereo not drawn) [(22), 5-Methyl-6-(3-pentyloxycarbonyl)-7-(2-trifluoromethylphenyl)-4,7-dihydropyrazolo[1,5-a]pyrimidine]
change in vivo at 0.3 mg/kg [4]: 24% | change in vivo at 0.3 mg/kg [3]: 107%

CCOC(=O)C1=C(C)Nc2ccnn2C1c1ccccc1Cl (stereo not drawn) [(4), 7-(2-Chlorophenyl)-6-ethoxycarbonyl-5-methyl-4,7-dihydropyrazolo[1,5-a]pyrimidine]
change in vivo at 0.3 mg/kg [3]: 33%

CC1=C(C(=O)OC(CN2CCCCC2)c2ccccc2)C(c2cccc([N+](=O)[O-])c2)n2nccc2N1 (stereo not drawn) [(2), 1-Phenyl-2-piperidinoethyl 5-methyl-7-(3-nitrophenyl)-4,7-dihydropyrazolo[1,5-a]pyrimidine-6-carboxylate (β-form of diastereomer)]
inhibition in vivo at 0.03 mg/kg [5]: 37% | Increase in CBF ED50 [1]: 1.5 µg | Increase in dp/dt max ED30 [2]: > 10 µg

CCOC(=O)C1=C(C)Nc2ccnn2C1c1ccccc1C(F)(F)F (single isomer, unassigned) [(20), 6-Ethoxycarbonyl-5-methyl-7-(2-trifluoromethylphenyl)-4,7-dihydropyrazolo[1,5-a]pyrimidine, optical isomer (-)]
inhibition in vivo at 0.01 mg/kg [5]: 22%

CCCCOC(=O)C1=C(C)Nc2ccnn2C1c1ccccc1C(F)(F)F (stereo not drawn) [(3), 6-Butoxycarbonyl-5-methyl-7-(2-trifluoromethylphenyl)-4,7-dihydropyrazolo[1,5-a]pyrimidine]
change in vivo at 0.1 mg/kg ([4]; 100 μg/kg): 20% | change in vivo at 0.1 mg/kg ([3]; 100 μg/kg): 36% | [K+]o at which conversion of Ca2+-agonistic to Ca2+-antagonistic action occurred [6]: 24 mM

CC1=C(C(=O)OC(CN2CCCCC2)c2ccccc2)C(c2cccc([N+](=O)[O-])c2)n2ccnc2N1 (stereo not drawn) [(34), 1-Phenyl-2-piperidinoethyl 7-methyl-5-(3-nitrophenyl)-5,8-dihydroimidazo[1,2-a]pyrimidine-6-carboxylate (β-form of diastereomer)]
Increase in CBF ED50 [1]: 10.0 µg | Increase in dp/dt max ED30 [2]: > 30 µg

CC1=C(C(=O)OC(C)C)C(c2cccc(Cl)c2Cl)n2nccc2N1 (stereo not drawn) [(28), 7-(2,3-Dichlorophenyl)-6-isopropoxycarbonyl-5-methyl-4,7-dihydropyrazolo[1,5-a]pyrimidine]
inhibition in vivo at 0.03 mg/kg [5]: 29% | change in vivo at 0.03 mg/kg [3]: 53%

CC1=C(C(=O)OCC(C)C)C(c2ccccc2C(F)(F)F)n2nccc2N1 (stereo not drawn) [(12), 6-Isobutoxycarbonyl-5-methyl-7-(2-trifluoromethylphenyl)-4,7-dihydropyrazolo[1,5-a]pyrimidine]
Increase in CBF ED50 [1]: 1.8 µg | Increase in dp/dt max ED30 [2]: > 300 µg

CCOC(=O)C1=C(C)Nc2c(C#N)cnn2C1c1ccccc1C(F)(F)F (stereo not drawn) [(14), 3-Cyano-6-ethoxycarbonyl-5-methyl-7-(2-trifluoromethylphenyl)-4,7-dihydropyrazolo[1,5-a]pyrimidine]
inhibition in vivo at 0.01 mg/kg [5]: 20% | Increase in CBF ED50 [1]: 1.6 µg | Increase in dp/dt max ED30 [2]: > 100 µg | change in vivo at 0.01 mg/kg [3]: 54%

CC1=C(C(=O)OC(C)C)C(c2cc(F)ccc2F)n2nccc2N1 (stereo not drawn) [(32), 7-(2,5-Difluorophenyl)-6-isopropoxycarbonyl-5-methyl-4,7-dihydropyrazolo[1,5-a]pyrimidine]
Increase in CBF ED50 [1]: 8 µg | Increase in dp/dt max ED30 [2]: 93 µg
